Calls of active or inactive are those of the source. The rule behind the calls is not given here.
Columns and labels:
Amaranthus viridis = experiment: Herbicidal activity against Amaranthus viridis assessed as injury at 4 kg/ha applied as spray during postemergence measured after 2 weeks; format: functional
Chenopodium album = experiment: Herbicidal activity against Chenopodium album assessed as injury at 4 kg/ha applied as spray during postemergence measured after 2 weeks; format: functional
[1] = Inhibition of Salmonella enterica subsp. enterica serovar Typhimurium tryptophan synthase alpha subunit; details: read-out: I50
Arabidopsis thaliana [2] = experiment: Herbicidal activity against Arabidopsis thaliana seedlings assessed as injury at 8 to 1000 uM in presence of tryptophan; format: functional, organism-based
Arabidopsis thaliana [3] = experiment: Herbicidal activity against Arabidopsis thaliana seedlings assessed as injury at 8 to 16 uM; format: functional, organism-based
Arabidopsis thaliana [4] = experiment: Herbicidal activity against Arabidopsis thaliana seedlings assessed as chlorosis at 125 to 1000 uM; format: functional, organism-based
Arabidopsis thaliana [5] = experiment: Herbicidal activity against Arabidopsis thaliana seedlings assessed as injury at 31 to 1000 uM; format: functional, organism-based
Arabidopsis thaliana [6] = experiment: Herbicidal activity against Arabidopsis thaliana seedlings assessed as chlorosis at 8 to 1000 uM; format: functional, organism-based
Arabidopsis thaliana [7] = experiment: Herbicidal activity against Arabidopsis thaliana seedlings assessed as injury at 8 to 1000 uM; format: functional, organism-based
[8] = biological target: T1, Tryptophan synthase alpha /beta chains (Escherichia coli K-12, UniProt P0A877+P0A879); experiment: Binding affinity to tryptophan synthase alpha2/beta2 complex in Escherichia coli K-12 by equlibrium dialysis method; format: protein-complex assay
T1 sequence (P0A879 whole entry): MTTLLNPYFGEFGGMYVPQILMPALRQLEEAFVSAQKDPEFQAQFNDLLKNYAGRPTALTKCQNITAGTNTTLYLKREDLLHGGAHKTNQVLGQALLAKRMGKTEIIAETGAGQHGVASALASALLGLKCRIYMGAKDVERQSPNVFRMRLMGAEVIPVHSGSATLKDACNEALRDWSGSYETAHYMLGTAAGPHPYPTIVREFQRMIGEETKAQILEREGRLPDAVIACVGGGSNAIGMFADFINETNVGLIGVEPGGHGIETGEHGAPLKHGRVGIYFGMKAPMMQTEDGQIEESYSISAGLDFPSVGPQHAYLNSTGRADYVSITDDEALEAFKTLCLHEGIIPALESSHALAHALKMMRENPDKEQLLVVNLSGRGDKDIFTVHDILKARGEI
T1 sequence (P0A877 whole entry): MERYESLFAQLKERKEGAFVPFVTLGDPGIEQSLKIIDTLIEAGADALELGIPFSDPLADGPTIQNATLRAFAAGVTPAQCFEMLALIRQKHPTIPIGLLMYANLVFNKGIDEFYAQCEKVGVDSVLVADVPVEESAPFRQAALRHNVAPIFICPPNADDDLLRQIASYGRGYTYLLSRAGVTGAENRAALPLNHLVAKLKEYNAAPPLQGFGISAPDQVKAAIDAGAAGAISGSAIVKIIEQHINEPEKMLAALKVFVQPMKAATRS

Ki [8]	Compound	Activity (Amaranthus viridis)	Activity (Chenopodium album)	IC50 [1]	Activity (Arabidopsis thaliana [2])	Activity (Arabidopsis thaliana [3])	Activity (Arabidopsis thaliana [4])	Activity (Arabidopsis thaliana [5])	Activity (Arabidopsis thaliana [6])	Activity (Arabidopsis thaliana [7])
	O=P(O)(O)/C=C/CCS(=O)(=O)c1ccccc1O	inactive	inactive	360 nM						
	O=P(O)(O)CCCc1c[nH]c2ccccc12			12500 nM						
	Nc1ccccc1SCCCCP(=O)(O)O	<=65%	<=65%	400 nM						
	O=P(O)(O)CCCCSc1ccccc1O	<=80%	<=80%	130 nM	inactive	inactive	Active	Active		
	O=P(O)(O)/C=C/CCSc1ccccc1O	<=80%	<=80%	570 nM	inactive				Active	Active
	O=P(O)(O)/C=C/CC[S+]([O-])c1ccccc1O (centres undefined)	<=80%	<=80%	440 nM	inactive				Active	Active
	O=P(O)(O)CCCCc1c[nH]c2ccccc12			20000 nM						
15000 nM	O=P(O)(O)OCCCc1c[nH]c2ccccc12			5000 nM						

From ChEMBL document CHEMBL3045570, “Rational herbicide design by inhibition of tryptophan biosynthesis” (Bioorg Med Chem Lett, 1999)
